Data from patent publication US20240207263A1, “SELECTIVE MODULATORS OF ATAXIA TELA[…] (ATM) KINASE AND USES THEREOF” (priority 2021, published 2024).

Key:
[1] = test system: phosp-KAP1 in MCF-7 cells; test: phosp-KAP1 MCF-7 cellular potency assay (Assay f); type: cell-based; settings: Homo sapiens, MCF7; MCF-7 cells, etoposide; read-out: Etoposide MCF-7 cellular IC50
Experimental: Assay f): phosp-KAP1 MCF-7 Cellular Potency
MCF-7 cells were seeded to a 384-well cell-culture plate, 25 μl/well which were incubated at 37° C. and 5% CO2 for 24 hr. Test compounds were added to the 384-well plates. Etoposide at final concentration of 100 μM was then added to each well except Vehicle control wells, which were incubated at 37° C. and 5% CO2 for 1 hour. After medium removal, cells were fixed by the addition of 25 μl/well of 8% paraformaldehyde in PBSA and incubated for 20 minutes at room temperature. After the plates were rinsed 3 times with PBSA, 50 ul permeabilization buffer (0.1% Triton X-100 in PBS) was added and the plates were incubated for 20 minutes at room temperature. After the plates were rinsed with PBSA, block the cells by adding 50 μl of Odyssey Blocking Buffer in 384-well plate and then incubate for 1.5 hours at room temperature. Remove blocking buffer by Plate washer (BioTek ELx405 select CW). […] The plates were rinsed 5 times with PBST (0.1% Tween-20 in PBS).
• 1) Fluorescence intensity (FI) was detected for each well. • 2) % inhibition is calculated as follow:
[formula] • FIpositive: The average FI for the positive controls across the plate. • FIvehicle: The average FI for negative controls across the plate. • 3) Calculate IC50 and Plot effect-dose curve of compounds: • Calculate IC50 by fitting % inhibition values and log of compound concentrations to nonlinear regression (dose response−variable slope) with Graphpad prism 6.0.
Y=Bottom+(Top−Bottom)/(1+10^((Log IC50−X)*HillSlope)) • X: log of compounds concentration; Y: % inhibition

ATM = ATM (Homo sapiens (Human), UniProt Q13315); test: biochemical; type: biochemical; settings: read-out: ATM IC50
Chain of ATM (Q13315 whole entry, looked up): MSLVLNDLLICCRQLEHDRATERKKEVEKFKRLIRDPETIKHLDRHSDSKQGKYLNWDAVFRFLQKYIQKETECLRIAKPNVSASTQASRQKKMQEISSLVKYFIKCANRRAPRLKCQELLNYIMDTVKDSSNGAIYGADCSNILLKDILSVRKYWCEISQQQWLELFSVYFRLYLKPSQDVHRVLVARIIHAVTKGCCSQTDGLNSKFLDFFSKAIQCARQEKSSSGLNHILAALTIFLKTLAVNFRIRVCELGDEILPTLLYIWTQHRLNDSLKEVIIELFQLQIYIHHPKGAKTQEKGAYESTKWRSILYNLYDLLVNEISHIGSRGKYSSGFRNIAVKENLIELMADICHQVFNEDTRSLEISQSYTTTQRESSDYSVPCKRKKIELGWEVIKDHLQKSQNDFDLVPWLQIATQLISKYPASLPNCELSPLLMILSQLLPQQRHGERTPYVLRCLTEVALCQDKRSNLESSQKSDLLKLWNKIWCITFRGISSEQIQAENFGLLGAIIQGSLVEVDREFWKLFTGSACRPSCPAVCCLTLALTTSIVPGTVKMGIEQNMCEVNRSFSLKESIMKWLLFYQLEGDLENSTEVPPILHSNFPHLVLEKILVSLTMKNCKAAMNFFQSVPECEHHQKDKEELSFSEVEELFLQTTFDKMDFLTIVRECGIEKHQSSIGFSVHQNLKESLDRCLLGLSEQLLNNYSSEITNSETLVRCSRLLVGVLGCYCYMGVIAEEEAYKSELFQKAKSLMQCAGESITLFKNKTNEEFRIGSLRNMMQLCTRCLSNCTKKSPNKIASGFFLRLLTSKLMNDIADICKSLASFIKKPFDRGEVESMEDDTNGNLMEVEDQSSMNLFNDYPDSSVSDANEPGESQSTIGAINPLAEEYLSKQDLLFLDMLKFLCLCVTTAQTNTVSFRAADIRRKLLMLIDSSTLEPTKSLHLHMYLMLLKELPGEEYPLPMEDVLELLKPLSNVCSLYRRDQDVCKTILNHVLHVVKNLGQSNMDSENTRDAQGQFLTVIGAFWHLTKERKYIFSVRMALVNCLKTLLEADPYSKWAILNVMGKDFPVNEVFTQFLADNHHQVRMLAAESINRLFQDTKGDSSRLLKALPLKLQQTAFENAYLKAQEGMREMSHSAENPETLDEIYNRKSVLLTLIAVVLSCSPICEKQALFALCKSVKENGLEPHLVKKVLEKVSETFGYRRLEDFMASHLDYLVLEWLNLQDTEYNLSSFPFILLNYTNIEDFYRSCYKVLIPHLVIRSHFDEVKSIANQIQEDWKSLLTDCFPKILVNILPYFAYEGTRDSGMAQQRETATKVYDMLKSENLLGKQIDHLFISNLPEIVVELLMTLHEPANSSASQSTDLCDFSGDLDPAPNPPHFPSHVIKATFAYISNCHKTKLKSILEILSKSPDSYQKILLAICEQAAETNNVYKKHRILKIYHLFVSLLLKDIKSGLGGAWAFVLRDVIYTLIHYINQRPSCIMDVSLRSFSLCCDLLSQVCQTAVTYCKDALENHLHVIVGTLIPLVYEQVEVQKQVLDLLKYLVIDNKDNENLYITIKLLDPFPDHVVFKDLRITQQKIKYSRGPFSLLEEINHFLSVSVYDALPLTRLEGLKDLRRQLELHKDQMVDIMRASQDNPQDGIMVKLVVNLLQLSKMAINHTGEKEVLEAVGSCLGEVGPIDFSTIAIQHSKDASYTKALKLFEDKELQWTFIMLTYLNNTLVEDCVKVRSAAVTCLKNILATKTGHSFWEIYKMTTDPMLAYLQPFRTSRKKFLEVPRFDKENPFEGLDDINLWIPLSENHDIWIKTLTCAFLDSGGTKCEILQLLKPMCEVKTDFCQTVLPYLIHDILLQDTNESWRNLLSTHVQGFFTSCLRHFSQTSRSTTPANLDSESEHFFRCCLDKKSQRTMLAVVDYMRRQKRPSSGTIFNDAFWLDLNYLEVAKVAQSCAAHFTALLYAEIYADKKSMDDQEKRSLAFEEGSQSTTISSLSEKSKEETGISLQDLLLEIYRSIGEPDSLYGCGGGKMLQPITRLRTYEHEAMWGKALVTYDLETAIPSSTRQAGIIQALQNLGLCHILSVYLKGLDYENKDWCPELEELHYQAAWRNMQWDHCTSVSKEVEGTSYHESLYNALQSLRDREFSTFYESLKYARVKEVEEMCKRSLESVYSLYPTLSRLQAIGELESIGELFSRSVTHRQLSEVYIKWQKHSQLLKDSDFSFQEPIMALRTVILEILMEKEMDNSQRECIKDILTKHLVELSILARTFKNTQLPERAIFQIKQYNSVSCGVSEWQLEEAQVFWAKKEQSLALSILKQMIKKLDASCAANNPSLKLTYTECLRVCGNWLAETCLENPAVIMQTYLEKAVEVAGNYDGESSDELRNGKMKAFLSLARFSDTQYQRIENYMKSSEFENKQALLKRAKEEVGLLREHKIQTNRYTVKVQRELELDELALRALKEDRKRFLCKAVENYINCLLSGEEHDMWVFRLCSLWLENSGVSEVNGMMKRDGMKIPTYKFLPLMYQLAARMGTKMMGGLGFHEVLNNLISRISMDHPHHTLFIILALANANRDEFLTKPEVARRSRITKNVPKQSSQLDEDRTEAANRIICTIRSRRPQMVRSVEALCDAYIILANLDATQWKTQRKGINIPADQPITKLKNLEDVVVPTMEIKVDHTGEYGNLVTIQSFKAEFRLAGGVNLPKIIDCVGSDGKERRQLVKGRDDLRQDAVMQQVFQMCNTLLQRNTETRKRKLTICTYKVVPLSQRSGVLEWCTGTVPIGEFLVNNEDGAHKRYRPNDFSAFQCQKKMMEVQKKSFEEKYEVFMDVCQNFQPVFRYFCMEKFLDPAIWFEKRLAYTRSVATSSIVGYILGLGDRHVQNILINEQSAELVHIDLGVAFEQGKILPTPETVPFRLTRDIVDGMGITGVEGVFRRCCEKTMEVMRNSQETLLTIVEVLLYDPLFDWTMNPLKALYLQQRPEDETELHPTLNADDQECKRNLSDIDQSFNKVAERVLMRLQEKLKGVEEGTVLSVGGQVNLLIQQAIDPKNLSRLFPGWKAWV
Description: Assay a): ATM Biochemical Potency
Data was collected by Caliper.

SMILES | IC50 [1] [nM] | IC50 (ATM) [nM]
CC(C)n1c(=O)n(C)c2nnc3ccc(-c4ccc([C@@H](C)OCCN5CCC(OC(F)F)C5)nc4)cc3c21 (stereo partly drawn) [Example 54, 8-(6-((1R)-1-(2-(3-(difluoromethoxy)pyrrolidin-1-yl)ethoxy)ethyl)pyridin-3-yl)-1-isopropyl-3-methyl-1H-imidazo[4,5-c]cinnolin-2(3H)-one] | 17 | 
CC(C)n1c(=O)n(C)c2nnc3ccc(-c4ccc([C@@H](C)OCCN5CCC6(CC5)CC6)nc4)cc3c21 [Example 55, (R)-8-(6-(1-(2-(6-azaspiro[2.5]octan-6-yl)ethoxy)ethyl)pyridin-3-yl)-1-isopropyl-3-methyl-1H-imidazo[4,5-c]cinnolin-2(3H)-one] | 11 | 3.2
CO[C@H]1CCN(CCO[C@H](C)c2ccc(-c3ccc4nnc5c(c4c3)n(C(C)C)c(=O)n5C)cn2)C1 [Example 59, 1-isopropyl-8-(6-((R)-1-(2-((S)-3-methoxypyrrolidin-1-yl)ethoxy)ethyl)pyridin-3-yl)-3-methyl-1H-imidazo[4,5-c]cinnolin-2(3H)-one] | 65 | 8.3
CC(C)n1c(=O)n(C)c2nnc3ccc(-c4ccc([C@@H](C)OCCN5CCC6(COC6)C5)nc4)cc3c21 [Example 86, (R)-8-(6-(1-(2-(2-oxa-6-azaspiro[3.4]octan-6-yl)ethoxy)ethyl)pyridin-3-yl)-1-isopropyl-3-methyl-1H-imidazo[4,5-c]cinnolin-2(3H)-one] | 12 | 3.6
Cn1c(=O)n(C2CCOCC2)c2c3cc(-c4ccc(COCCN5CCC(C)(C)C5)nc4)ccc3nnc21 [Example 97, 8-(6-((2-(3,3-dimethylpyrrolidin-1-yl)ethoxy)methyl)pyridin-3-yl)-3-methyl-1-(tetrahydro-2H-pyran-4-yl)-1H-imidazo[4,5-c]cinnolin-2(3H)-one] | 43 | 14
C[C@@H](OCCN1CCC(C)(C)CC1)c1ccc(-c2ccc3nnc4c(c3c2)n(C2CCOCC2)c(=O)n4C)cn1 [Example 103, (R)-8-(6-(1-(2-(4,4-dimethylpiperidin-1-yl)ethoxy)ethyl)pyridin-3-yl)-3-methyl-1-(tetrahydro-2H-pyran-4-yl)-1H-imidazo[4,5-c]cinnolin-2(3H)-one] | 20 | 3.9
CO[C@H]1CCN(CCO[C@H](C)c2ccc(-c3ccc4nnc5c(c4c3)n(C3CCOCC3)c(=O)n5C)cn2)C1 [Example 105, 8-(6-((R)-1-(2-((S)-3-methoxypyrrolidin-1-yl)ethoxy)ethyl)pyridin-3-yl)-3-methyl-1-(tetrahydro-2H-pyran-4-yl)-1H-imidazo[4,5-c]cinnolin-2(3H)-one] | 36 | 
COC1CCN(CCO[C@H](C)c2ccc(-c3ccc4nnc5c(c4c3)n(C3CCOCC3)c(=O)n5C)cn2)CC1 [Example 110, (R)-8-(6-(1-(2-(4-methoxypiperidin-1-yL)ethoxy)ethyl)pyridin-3-yl)-3-methyl-1-(tetrahydro-2H-pyran-4-yl)-1H-imidazo[4,5-c]cinnolin-2(3H)-one] | 13 | 6.9
CO[C@H]1C[C@H](n2c(=O)n(C)c3nnc4ccc(-c5ccc(COCCN(C)C)nc5)cc4c32)C1 [Example 165, 8-(6-((2-(dimethylamino)ethoxy)methyl)pyridin-3-yl)-1-(trans-3-methoxycyclobutyl)-3-methyl-1H-imidazo[4,5-c]cinnolin-2(3H)-one] |  | 101
CO[C@H]1C[C@H](n2c(=O)n(C)c3nnc4ccc(-c5ccc(COCCN6CCCC6)nc5)cc4c32)C1 [Example 166, 1-(trans-3-methoxycyclobutyl)-3-methyl-8-(6-((2-(pyrrolidin-1-yl)ethoxy)methyl)pyridin-3-yl)-1H-imidazo[4,5-c]cinnolin-2(3H)-one] |  | 58
CO[C@H]1C[C@H](n2c(=O)n(C)c3nnc4ccc(-c5ccc(COCCN6CCC(F)CC6)nc5)cc4c32)C1 [Example 168, 8-(6-((2-(4-fluoropiperidin-1-yl)ethoxy)methyl)pyridin-3-yl)-1-(trans-3-methoxycyclobutyl)-3-methyl-1H-imidazo[4,5-c]cinnolin-2(3H)-one] |  | 48
CO[C@H]1C[C@H](n2c(=O)n(C)c3nnc4ccc(-c5ccc(COCCN6CC7CC7C6)nc5)cc4c32)C1 (stereo partly drawn) [Example 169, 8-(6-((2-(3-azabicyclo[3.1.0]hexan-3-yl)ethoxy)methyl)pyridin-3-yl)-1-(trans-3-methoxycyclobutyl)-3-methyl-1H-imidazo[4,5-c]cinnolin-2(3H)-one] |  | 42
CO[C@H]1C[C@@H](n2c(=O)n(C)c3nnc4ccc(-c5ccc([C@@H](C)OCCN6CCC7(CC6)CC7)nc5)cc4c32)C1 [Example 170, 8-(6-((R)-1-(2-(6-azaspiro[2.5]octan-6-yl)ethoxy)ethyl)pyridin-3-yl)-1-(cis-3-methoxycyclobutyl)-3-methyl-1H-imidazo[4,5-c]cinnolin-2(3H)-one] |  | 1.6
CO[C@H]1C[C@@H](n2c(=O)n(C)c3nnc4ccc(-c5ccc([C@@H](C)OCCN6CCC7(CC7)C6)nc5)cc4c32)C1 [Example 171, 8-(6-((R)-1-(2-(5-azaspiro[2.4]heptan-5-yl)ethoxy)ethyl)pyridin-3-yl)-1-(cis-3-methoxycyclobutyl)-3-methyl-1H-imidazo[4,5-c]cinnolin-2(3H)-one] |  | 2.5
CO[C@H]1C[C@@H](n2c(=O)n(C)c3nnc4ccc(-c5ccc(COCCN6CCCC6)nc5)cc4c32)C1 [Example 172, 1-(cis-3-methoxycyclobutyl)-3-methyl-8-(6-((2-(pyrrolidin-1-yl)ethoxy)methyl)pyridin-3-yl)-1H-imidazo[4,5-c]cinnolin-2(3H)-one] |  | 21
CO[C@H]1C[C@@H](n2c(=O)n(C)c3nnc4ccc(-c5ccc(COCCN6CCCCC6)nc5)cc4c32)C1 [Example 173, 1-(cis-3-methoxycyclobutyl)-3-methyl-8-(6-((2-(piperidin-1-yl)ethoxy)methyl)pyridin-3-yl)-1H-imidazo[4,5-c]cinnolin-2(3H)-one] |  | 32
CO[C@H]1C[C@@H](n2c(=O)n(C)c3nnc4ccc(-c5ccc(COCCN(C)C)nc5)cc4c32)C1 [Example 176, 8-(6-((2-(dimethylamino)ethoxy)methyl)pyridin-3-yl)-1-(cis-3-methoxycyclobutyl)-3-methyl-1H-imidazo[4,5-c]cinnolin-2(3H)-one] |  | 65
Cn1c(=O)n(C2COC2)c2c3cc(-c4ccc(COCCN5CCC(F)CC5)nc4)ccc3nnc21 [Example 179, 8-(6-((2-(4-fluoropiperidin-1-yl)ethoxy)methyl)pyridin-3-yl)-3-methyl-1-(oxetan-3-yl)-1H-imidazo[4,5-c]cinnolin-2(3H)-one] |  | 729
Cn1c(=O)n([C@H]2CCCOC2)c2c3cc(-c4ccc(COCCN5CCC(F)CC5)nc4)ccc3nnc21 [Example 182, (S)-8-(6-((2-(4-fluoropiperidin-1-yl)ethoxy)methyl)pyridin-3-yl)-3-methyl-1-(tetrahydro-2H-pyran-3-yl)-1H-imidazo[4,5-c]cinnolin-2(3H)-one] |  | 21
Cn1c(=O)n([C@H]2CCCOC2)c2c3cc(-c4ccc(COCCN5CC6CC6C5)nc4)ccc3nnc21 (stereo partly drawn) [Example 183, 8-(6-((2-(3-azabicyclo[3.1.0]hexan-3-yl)ethoxy)methyl)pyridin-3-yl)-3-methyl-1-((S)-tetrahydro-2H-pyran-3-yl)-1H-imidazo[4,5-c]cinnolin-2(3H)-one] |  | 20
CC(C)n1c(=O)n(C)c2nnc3ccc(-c4ccc([C@@H](C)OCC(=O)O)nc4)cc3c21 [Example 216, (R)-2-(1-(5-(1-isopropyl-3-methyl-2-oxo-2,3-dihydro-1H-imidazo[4,5-c]cinnolin-8-yl)pyridin-2-yl)ethoxy)acetic acid] |  | 339
CC(C)n1c(=O)n(C)c2nnc3ccc(-c4ccc(C(C)(C)OCCN5CC6CC6C5)nc4)cc3c21 (stereo not shown) [Example 217, 8-(6-(2-(2-(3-azabicyclo[3.1.0]hexan-3-yl)ethoxy)propan-2-yl)pyridin-3-yl)-1-isopropyl-3-methyl-1H-imidazo[4,5-c]cinnolin-2(3H)-one] |  | 72
CCC(OCCN1CCCC1)c1ccc(-c2ccc3nnc4c(c3c2)n(C(C)C)c(=O)n4C)cn1 (stereo not shown) [Example 219, 1-isopropyl-3-methyl-8-(6-(1-(2-(pyrrolidin-1-yl)ethoxy)propyl)pyridin-3-yl)-1H-imidazo[4,5-c]cinnolin-2(3H)-one] |  | 57
CCCC(OCCN1CCCC1)c1ccc(-c2ccc3nnc4c(c3c2)n(C(C)C)c(=O)n4C)cn1 (stereo not shown) [Example 220, 1-isopropyl-3-methyl-8-(6-(1-(2-(pyrrolidin-1-yl)ethoxy)butyl)pyridin-3-yl)-1H-imidazo[4,5-c]cinnolin-2(3H)-one] |  | 147
CC(C)C(OCCN1CCCC1)c1ccc(-c2ccc3nnc4c(c3c2)n(C(C)C)c(=O)n4C)cn1 (stereo not shown) [Example 221, 1-isopropyl-3-methyl-8-(6-(2-methyl-1-(2-(pyrrolidin-1-yl)ethoxy)propyl)pyridin-3-yl)-1H-imidazo[4,5-c]cinnolin-2(3H)-one] |  | 156
